# According to patent US9289412B2, “Role of limonoid compounds as neuroprotective agents” (The Johns Hopkins University, priority 2006, dated 2016):
# Like-named read-outs stand apart in the source and are kept apart here.
# Assays:
# [1] = tested on: rat mixed hippocampal cultures; assay: Titration of 3-NP for neurotoxic effects, MTT viability; type: cell-based; settings: 3 mM 3-NP, 18 hours
# Method: FIG. 3 is a bar graph showing the effect of a series of 3-nitropropionic acid (3-NP) concentrations (0.5-10 mM) on survival of mixed hippocampal cell cultures in a [3-(4,5-dimethylthiazol-2-yl)-2,5-diphenyl tetrazolium bromide] (MTT) viability assay. Absorbance at 595 nm (corresponding to the absorbance of the reduced MTT formazan product) is directly proportional to cell viability.
# [2] = tested on: rat mixed hippocampal cultures; assay: 3-NP neurotoxicity assay, MTT viability, rat mixed hippocampal cultures; type: cell-based; settings: for inhibition at 10 µM: Rattus norvegicus; for protection against 3-NP (FIG. 5): approximate values; for protection from oxidative damage elicited by 3-NP, in words (FIG. 4A): GPI 1046 1 μM, Resveratrol 25 μM
# Method: For example, a cell viability assay can be used in a preliminary screen on a large series of compounds each of which is tested at a fixed concentration. In some embodiments, mixed hippocampal cell cultures are prepared as described in, e.g., Haughey et al. (1999), J Neurochem, 73(4):1363-1374, and Haughey et al (2004), J Neurosci, 24(1):257-268. Subsequently, the cultures are pretreated for one hour in the presence of a candidate neuroprotective agent and then incubated with a cytotoxic agent for about 18 hours. Examples of cytotoxic agents include, but are not limited to, oxidative stressors (e.g., 3-nitropropionic acid (3-NP) or H2O2), excitatory amino acids (e.g., kainate), or neurotoxic proteins (e.g., Hiv Tat, or Aβ peptides). […] The level of protection (“percent protection”) provided by the test compound at a given test concentration in vitro can be expressed as: […]
# A variety of methods for determining cell viability may be used. In some embodiments, cell viability is assessed based on the “MTT” assay method described in Mosmann (1983), J Immunol Methods, 65(1-2):55-63, or a variant thereof. This assay is based on the ability of a mitochondrial dehydrogenase enzyme from viable cells to cleave the tetrazolium rings of the pale yellow MTT and form dark blue formazan crystals, which are trapped in cells and readily quantified by ELISA spectrophotometry.
# (§1) We sought to evaluate the protective efficacy of a number of modified terpenoid compounds against the against many different neurotoxins, ranging from the chemotoxic 6-OHDA, NMDA, 3-nitropropionic acid (3-NP), and viral proteins such as Tat and gp120. Thus, we established an in vitro neuroprotection assay using rat mixed hippocampal cultures, in which we evaluated the protective efficacy of neuroprotective compounds disclosed herein. The oxidative stressor 3-NP was used to elicit toxicity in the rat hippocampal cultures to mimic the oxidative damage, reactive oxygen species production and ensuing neurodegeneration resulting from HIV infection. Another measure of neurotoxicity which results from HIV infection was evaluated by exposure of the hippocampal cultures to HIV-1 Tat (Li et al (2005), Neurotox Res, 8(1-2): 119-134).
# (§2) Rat mixed hippocamal neuronal cultures were generated from freshly dissected rat hippocampi (embryonic day 18) in neurobasal media containing 5% fetal bovine serum and 2% B27 supplement. The cells were plated into 96 well plates at a density of 4×10^5 cells/mL and routinely used on days 11-14 following culturing. Cell viability was assessed with MTT [3-(4,5-dimethylthiazol-2-yl)-2,5-diphenyltetrazolium bromide] assay. The MTT assay is based on the ability of a mitochondrial dehydrogenase enzyme from viable cells to cleave the tetrazolium rings of the pale yellow MTT and form dark blue formazan crystals. See Mosmann (1983), J Immunol Methods, 65(1-2):55-63. These crystals are largely impermeable to cell membranes, and thus accumulate within healthy cells. The resultant formazan precipitates are solubilized with DMSO and read on a multiwell scanning spectrophotometer (ELISA reader). The number of surviving cells is directly proportional to the level of the formazan product created.
# Mixed hippocampal cultures were incubated with 3-NP (0.5-10 mM) for 18 hours and then assessed for viability using an MTT assay.
# (§3) Cultures were preincubated with GPI 1046 or Resveratrol for one hour prior to an 18 hour exposure to 3 mM 3-NP. […] The same neuroprotective compounds were evaluated for efficacy against HIV-1 Tat protein toxicity using the same 1 hour preincubation protocol.
# [3] = tested on: hippocampal cultures (HIV-1 Tat toxicity); assay: HIV-1 Tat toxicity assay, MTT viability, mixed hippocampal cultures; type: cell-based, rat; settings: Tat 500 nM; for protection from HIV-1 Tat toxicity, in words (FIG. 4B): 1 h preincubation, GPI 1046 10 μM, Resveratrol 10 μM
# Text: as §1, §2, §3
# [4] = Table 3, 3 mM 3-NP 18 h, 1 h preincubation, test concentration (10 μM), read-out: % Protection vs 3-NP
# [5] = Table 2, vs 3 mM 3-NP 18 h, 1 h preincubation, test concentration (10 μM)
# [6] = Table 2, vs 3 mM 3-NP 18 h, 1 h preincubation, test concentration (10 μM), read-out: % Protection
# [7] = Table 3, 3 mM 3-NP 18 h, 1 h preincubation, test concentration (10 μM)
# [8] = 3 mM 3-NP 18 h, 1 h preincubation
compound,measurement,setting,value
"O=C(O)CC[N+](=O)[O-] [Compound 3-NP, 3-nitropropionic acid]",cytotoxicity induced,[1],25-35%
CC(=O)O[C@@H]1CC2C(C)(C)C(=O)C=C[C@]2(C)C2CC[C@@]3(C)C(=CC(=O)O[C@@H]3c3ccoc3)[C@@]21C (some centres unmarked) [DEOXYGEDUNIN],inhibition at 10 µM,[2]; [4],23%
same,% Protection,[2]; [5],23%
CC(=O)OC1C=C[C@@]2(C)C(C[C@@H](OC(C)=O)[C@@]3(C)C4=CC(=O)O[C@@H](c5ccoc5)[C@]4(C)CCC23)C1(C)C (some centres unmarked) [DEOXYGEDUNOL ACETATE],inhibition at 10 µM,[2]; [6],54%
CC(=O)OC1CC2C(C)(C)[C@H](OC(C)=O)C[C@H](OC(C)=O)[C@]2(C)C2CC[C@]3(C)C(=CC(=O)O[C@@H]3c3ccoc3)[C@]12C (some centres unmarked) [DEOXYKHIVORIN],inhibition at 10 µM,[2]; [6],36%
same,inhibition at 10 µM,[2]; [4],36%
"COC(=O)[C@@H]1OC(=O)C2OC23[C@@]1(C)CCC1[C@]2(C)C(C[C@@H](O)[C@]13C)C(C)(C)[C@H](OC(C)=O)C[C@@H]2OC(C)=O (some centres unmarked) [DESACETYL (7)KHIVORINIC ACID, METHYL ESTER]",% Protection,[2]; [5],58%
COC(=O)C[C@H]1C(C)(C)[C@@H](OC(C)=O)[C@@H]2CC3C4CC(=O)O[C@@H](c5ccoc5)[C@]4(C)CCC3[C@@]1(C)C2=O (some centres unmarked) [DIHYDROFISSINOLIDE],inhibition at 10 µM,[2]; [4],12%
CC(=O)O[C@@H]1CC2C(C)(C)C3(CC[C@]2(C)C2CC[C@@]4(C)[C@H](c5ccoc5)OC(=O)C5OC54[C@@]21C)SCCS3 (some centres unmarked) [DIHYDROGEDUNIN ETHANEDITHIOKETAL],% Protection,[2]; [5],19%
CC(=O)O[C@@H]1CC2C(C)(C)C(=O)CC[C@]2(C)C2CC[C@@]3(C)[C@@H](c4ccoc4)OC(=O)C4OC43[C@@]21C (some centres unmarked) [DIHYDROGEDUNIN],inhibition at 10 µM,[2]; [6],28%
CCC(C)C(=O)O[C@@H]1C[C@@]2(C)[C@H](c3ccoc3)OC(=O)CC23OC2(C)OC34[C@H](OC(=O)C(C)C)[C@@]3(O)[C@@H](OC(=O)C5(C)OC5C)[C@@]5(C)C[C@]3(O)[C@@](C)([C@H]5CC(=O)OC)C14O2 (some centres unmarked) [ENTANDROPHRAGMIN],% Protection vs 3-NP,[2]; [7],18%
CC(=O)O[C@@H]1CC2C(C)(C)C(=O)C3OC3[C@]2(C)C2CC[C@@]3(C)[C@H](c4ccoc4)OC(=O)C4OC43[C@@]21C (some centres unmarked) [EPOXYGEDUNIN],% Protection,[2]; [5],69%
COC(=O)C[C@H]1C(C)(C)[C@@H](OC(C)=O)[C@@H]2CC3=C4CC(=O)O[C@@H](c5ccoc5)[C@]4(C)CC[C@@H]3[C@@]1(C)C2=O [FISSINOLIDE],inhibition at 10 µM,[2]; [4],28%
CC(=O)O[C@@H]1CC2C(C)(C)C(=O)C=C[C@]2(C)C2CC[C@@]3(C)[C@H](c4ccoc4)OC(=O)[C@H]4O[C@]43[C@@]21C (some centres unmarked) [GEDUNIN],protection against 3-NP (FIG. 5),[2]; 3 mM 3-NP,about 50%
same,inhibition at 10 µM,[2]; [6],40%
same,"neuroprotection from HIV-1 Tat toxicity, in words",[3]; 1-10 μM compound,nearly complete neuroprotection
same,dose dependence of protection from HIV-1 Tat toxicity (FIG. 7),[3]; range of concentrations up to 10 μM,dose dependently protected
CC(=O)O[C@@H]1CC2C(C)(C)[C@H](O)C=C[C@]2(C)C2CC[C@@]3(C)[C@H](c4ccoc4)OC(=O)C4OC43[C@@]21C (some centres unmarked) [GEDUNOL],% Protection,[2]; [5],45%
"CCC(C)(C)C(=O)C(=O)N1CCC[C@H]1C(=O)OCCCc1cccnc1 [GPI 1046, reference compound]","protection from oxidative damage elicited by 3-NP, in words (FIG. 4A)",[2]; [8],significantly protected
same,"protection from HIV-1 Tat toxicity, in words (FIG. 4B)",[3],protected hippocampal neurons from Tat toxicity
CC(=O)O[C@@H]1CC2C(C)(C)C=CC(=O)[C@]2(C)C2CC[C@@]3(C)[C@H](c4ccoc4)OC(=O)C4OC43[C@@]21C (some centres unmarked) [ISOGEDUNIN],inhibition at 10 µM,[2]; [6],50%
CC(=O)OC1C[C@H](OC(C)=O)[C@@]2(C)C(C[C@@H](OC(C)=O)[C@]3(C)C2CC[C@@]2(C)[C@H](c4ccoc4)OC(=O)[C@H]4O[C@]423)C1(C)C (some centres unmarked) [KHIVORIN],"protection against 3-NP, in words (FIG. 5A)","[2]; 3 mM 3-NP, 10 μM of Khivorin",nearly complete protection
same,inhibition at 10 µM,[2]; [6],70%
COC(=O)C[C@H]1C(C)(C)C(=O)[C@@H]2CC3=C4CC(=O)O[C@@H](c5ccoc5)[C@]4(C)CC[C@@H]3[C@@]1(C)C2=O [MEXICANOLIDE],inhibition at 10 µM,[2]; [4],9%
C=C1[C@@H]([C@@]2(C)[C@@H](OC(C)=O)CC(=O)O[C@](C)(COC(C)=O)[C@@H]2C(=O)OC)[C@@H](OC=O)[C@H](OC(=O)[C@H](O)[C@H](C)CC)[C@@]2(C)[C@H](c3ccoc3)CC(=O)[C@]12O [PRIEURIANIN],inhibition at 10 µM,"[2]; 18 h, read-out: % Protection vs 3-NP",6%
COC1=C[C@@H](C)[C@@H]2C[C@H]3OC(=O)C[C@H]4C(C)=C(OC)C(=O)[C@H]([C@@]2(C)C1=O)[C@@]34C [QUASSIN],inhibition at 10 µM,[2]; [4],8%
"Oc1ccc(C=Cc2cc(O)cc(O)c2)cc1 [Resveratrol, reference compound]","protection from oxidative damage elicited by 3-NP, in words (FIG. 4A)",[2]; [8],significantly protected
same,"protection from HIV-1 Tat toxicity, in words (FIG. 4B)",[3],protected hippocampal neurons from Tat toxicity
CCC(C)C(=O)O[C@@H]1C[C@@]2(C)[C@H](c3ccoc3)OC(=O)CC23OC2(C)O[C@]14[C@]1(C)[C@@H](CC(=O)OC)C5(C)CC1(O)[C@](O)(C5OC(=O)C1(C)OC1C)[C@@H](OC(C)=O)[C@]34O2 (some centres unmarked) [UTILIN],inhibition at 10 µM,[2]; [4],16%
"C=C1C2CC[C@@]3(C)[C@H](c4ccoc4)OC(=O)C[C@]13OC1CC(=O)C(C)(C)C(CC(=O)OC)C12C (some centres unmarked) [[…], METHYL ESTER]",protection against 3-NP (FIG. 5),[2]; 3 mM 3-NP,about 50%
same,inhibition at 10 µM,[2]; [6],33%
same,inhibition at 10 µM,[2]; [4],33%
C[C@@H]([C@H]1OC(C)(C)[C@@H](O)[C@H]1O)[C@@H]1CC[C@]2(C)C3=CC[C@H]4C(C)(C)C(=O)CC[C@]4(C)[C@H]3CC[C@@]12C [odoratone],protection against 3-NP (FIG. 5),[2]; 3 mM 3-NP,60-70%
KHAYANTHONE,% Protection vs 3-NP,[2]; [7],36%
KHAYASIN C,% Protection vs 3-NP,[2]; [7],13%
